Results taken from patent US20260209180A1, “PROTEASE INHIBITORS FOR TREATING OR PREVENTING CORONAVIRUS INFECTION” (Merck Sharp & Dohme LLC, priority 2023, published 2026).

molecular target: SARS2 coronavirus 3CL protease (Severe acute respiratory syndrome coronavirus 2, UniProt P0DTD1); assay: SARS2 Coronavirus 3CL Protease Assay (FRET); type: biochemical; conditions: 5 nM protease pre-incubated with compound 30 minutes; 15 uM peptide substrate; 4 h room temperature; read-out: FRET Potency (nM); IC50 values in the SARS2 3CLPro FRET assay
Procedure: The enzymatic activity of SARS2 coronavirus 3CL protease was determined in a FRET (fluorescence resonance energy transfer)-based assay measuring the cleavage of a peptide substrate by recombinantly expressed and purified enzyme. Cleavage of the peptide SEQ ID NO: 1 (CPC Scientific) by SARS2 3CL protease was measured in reaction buffer (50 mM Hepes pH 7.5, 0.01% Triton X-100, 0.01% BSA, 2 mM DTT). […] Room temperature reactions (4 h) were quenched by addition of a high dose of inhibitor and read on an appropriate plate reader (excitation wavelength=495 nm, emission wavelength=520 nm). Data were analyzed by a standard 4 parameter fit to determine IC50 values.

Row | Structure (SMILES) | IC50
1 | CNC(=O)C(=O)[C@H](CCC(C)(F)F)NC(=O)c1cc(Cl)ccc1NC(=O)N(C)CC1CCC(F)(F)CC1 [Example 57, (S)-5-chloro-N-(6,6-difluoro-1-(methylamino)-1,2-dioxoheptan-3-yl)-2-(3-((4,4-difluorocyclohexyl)methyl)-3-methylureido)benzamide] | 6 nM
2 | CNC(=O)C(=O)[C@H](CCC(C)(F)F)NC(=O)c1cc(Cl)ccc1NC(=O)C1CC12CC2 (single isomer, unassigned) [Example 19] | 10.5 nM
3 | CNC(=O)C(=O)[C@H](CCC(C)(F)F)NC(=O)c1cc(Cl)ccc1NC(=O)C(C)C [Example 58, 5-chloro-N-[(1S)-4,4-difluoro-1-[2-(methylamino)-2-oxo-acetyl]pentyl]-2-(2-methylpropanoylamino) benzamide] | 6.2 nM
4 | CNC(=O)C(=O)[C@H](CCC(C)(F)F)NC(=O)c1cc(Cl)ncc1NC(=O)OC [Example 55, methyl N-[6-chloro-4-[[(1S)-4,4-difluoro-1-[2-(methylamino)-2-oxo-acetyl]pentyl]carbamoyl]-3-pyridyl]carbamate] | 93.8 nM
5 | CNC(=O)C(=O)[C@H](CCC(C)F)NC(=O)c1cc(Cl)ccc1NC(=O)OC (single isomer, unassigned) [Example 6B] | 154 nM
6 | CNC(=O)C(=O)[C@H](CCC(C)(F)F)NC(=O)c1cc(Cl)c(F)cc1NC(=O)CCC(F)(F)F [Example 4, (S)-5-chloro-N-(6,6-difluoro-1-(methylamino)-1,2-dioxoheptan-3-yl)-4-fluoro-2-(4,4,4-trifluorobutanamido)benzamide] | 9.9 nM
7 | CC(F)(F)CC[C@H](NC(=O)c1cc(Cl)cnc1NC(=O)C1(C(F)(F)F)CC1)C(=O)C(=O)NC1CC1 [Example 44, 5-chloro-N-[(1S)-1-[2-(cyclopropylamino)-2-oxo-acetyl]-4,4-difluoro-pentyl]-2-[[1-(trifluoromethyl)cyclopropane-carbonyl]amino]pyridine-3-carboxamide] | 50.4 nM
8 | CNC(=O)C(=O)[C@H](CCC(C)(F)F)NC(=O)c1cc(Cl)ccc1NC(=O)C1CCc2scnc21 (stereo partly drawn) [Example 15, N-[4-chloro-2-[[(1S)-4,4-difluoro-1-[2-(methylamino)-2-oxo-acetyl]pentyl]carbamoyl]phenyl]-5,6-dihydro-4H-cyclopenta[d]thiazole-4-carboxamide] | 8.4 nM
9 | CNC(=O)C(=O)[C@H](CCC(C)(F)F)NC(=O)c1cc(Cl)ccc1NC(=O)CCC(F)(F)F [Example 14, 5-chloro-N-[(1S)-4,4-difluoro-1-[2-(methylamino)-2-oxo-acetyl]pentyl]-2-(4,4,4-trifluorobutanoylamino) benzamide] | 8.2 nM
10 | CNC(=O)C(=O)[C@H](CCC(C)(F)F)NC(=O)c1cc(Cl)ccc1NC(=O)C1CC1C(F)(F)F (stereo partly drawn) [Example 32, 5-chloro-N-[(1S)-4,4-difluoro-1-[2-(methylamino)-2-oxo-acetyl]pentyl]-2-[[2-(trifluoromethyl)cyclopropane-carbonyl]amino]benzamide] | 21.3 nM
